Experimental data published in patent US11673886B2, “5-membered and bicyclic heterocyclic amides as inhibitors of ROCK” (BRISTOL-MYERS SQUIBB COMPANY, priority 2017, dated 2023).
pIC50: −log10 of the molar value.

What was measured:
ROCK2 = ROCK2 (Homo sapiens (Human), UniProt O75116); test: ROCK2 assay (kinase inhibition, FITC peptide substrate, LABCHIP 3000 Reader); format: biochemical; conditions: 5 μM ATP, 1.5 μM peptide substrate
ROCK [1] = conditions: long term treatment; cited from earlier work
ROCK [2] = conditions: rat, in vivo; cited from earlier work

ROCK2, sequence (O75116 whole entry, species assumed): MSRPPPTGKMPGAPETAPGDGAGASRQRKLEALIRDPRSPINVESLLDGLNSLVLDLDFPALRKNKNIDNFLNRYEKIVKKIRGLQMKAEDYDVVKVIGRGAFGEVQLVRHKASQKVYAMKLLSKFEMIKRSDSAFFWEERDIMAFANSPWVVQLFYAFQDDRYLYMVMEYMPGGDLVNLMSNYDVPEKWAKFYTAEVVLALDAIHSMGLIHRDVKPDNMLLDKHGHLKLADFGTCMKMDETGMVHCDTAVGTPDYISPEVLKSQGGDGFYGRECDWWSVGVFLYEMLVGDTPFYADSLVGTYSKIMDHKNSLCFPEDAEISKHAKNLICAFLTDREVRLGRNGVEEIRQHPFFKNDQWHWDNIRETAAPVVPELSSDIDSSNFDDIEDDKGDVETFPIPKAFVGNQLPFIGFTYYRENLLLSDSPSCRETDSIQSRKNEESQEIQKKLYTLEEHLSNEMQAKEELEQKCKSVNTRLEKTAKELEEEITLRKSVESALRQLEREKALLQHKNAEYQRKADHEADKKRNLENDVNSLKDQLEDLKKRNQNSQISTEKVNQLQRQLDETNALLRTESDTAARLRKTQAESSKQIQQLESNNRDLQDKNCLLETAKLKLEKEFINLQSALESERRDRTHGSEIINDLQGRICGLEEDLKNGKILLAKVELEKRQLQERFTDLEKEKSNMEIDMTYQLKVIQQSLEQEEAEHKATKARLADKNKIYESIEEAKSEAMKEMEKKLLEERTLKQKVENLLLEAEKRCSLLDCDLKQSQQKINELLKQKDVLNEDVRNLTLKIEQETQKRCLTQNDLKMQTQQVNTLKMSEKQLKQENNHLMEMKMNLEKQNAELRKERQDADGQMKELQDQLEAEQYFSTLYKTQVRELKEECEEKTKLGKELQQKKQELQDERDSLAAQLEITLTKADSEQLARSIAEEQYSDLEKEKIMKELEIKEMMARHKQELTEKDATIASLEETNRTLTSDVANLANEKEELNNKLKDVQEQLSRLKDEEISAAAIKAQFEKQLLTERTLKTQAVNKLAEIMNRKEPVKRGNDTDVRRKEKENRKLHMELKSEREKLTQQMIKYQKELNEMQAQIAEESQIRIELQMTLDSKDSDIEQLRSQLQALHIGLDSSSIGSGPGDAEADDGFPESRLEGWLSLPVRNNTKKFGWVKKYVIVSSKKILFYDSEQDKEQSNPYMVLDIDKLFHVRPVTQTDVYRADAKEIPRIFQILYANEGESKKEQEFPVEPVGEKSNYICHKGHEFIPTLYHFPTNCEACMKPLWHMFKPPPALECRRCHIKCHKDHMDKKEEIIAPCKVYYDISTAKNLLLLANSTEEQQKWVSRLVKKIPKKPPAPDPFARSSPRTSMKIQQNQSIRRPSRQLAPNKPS

| Molecule | pIC50 (ROCK2) | other results |
| --- | --- | --- |
| COCCn1cc(C(N)=O)c(O[C@H]2CC3(C[C@H](NC(=O)c4cnn5c(C6CC6)c(OCC(C)(C)O)ccc45)C3)C2)n1 (stereo partly drawn) [Example 23, 3-({(aR)-6-[7-cyclopropyl-6-(2-hydroxy-2-methylpropoxy)pyra-zolo[1,5-a]pyridine-3-amido]spiro[3.3]hep-tan-2-yl}oxy)-1-(2-methoxyethyl)-1H-pyrazole-4-carboxamide] | 7.11 |  |
| CC(C)(O)COc1ccc2c(C(=O)N[C@H]3C[C@]4(C3)C[C@H](Oc3c(C(N)=O)cnn3CCCN)C4)cnn2c1C1CC1 (stereo partly drawn) [Example 28, 1-(3-aminopropyl)-5-({(aR)-6-[7-cyclopropyl-6-(2-hydroxy-2-methylpropoxy)pyra-zolo[1,5-a]pyridine-3-amido]spiro[3.3]hep-tan-2-yl}oxy)-1H-pyrazole-4-carboxamide] | 6.26 |  |
| O=S(=O)(c1cccc2cnccc12)N1CCCNCC1 [fasudil] |  | coronary constrictive remodeling (ROCK [1]): promote a regression of coronary constrictive remodeling; coronary stenosis (ROCK [1]): progressively reduce coronary stenosis; infarct size and neurologic deficit (ROCK [2]): reduce both the infarct size and neurologic deficit |
| [H][C@]1(Oc2c(C(N)=O)sc3ccccc23)C[C@]2(C[C@@H](NC(=O)c3cnn4c(C5CC5)c(OCC(C)(C)O)ccc34)C2)C1 (stereo partly drawn) [Example 2, N-((aR)-6-((2-Carbamoylbenzo[b]thiophen-3-yl)oxy)spiro[3.3]heptan-2-yl)-7-cyclopropyl-6-(2-hydroxy-2-methylpropoxy)pyrazolo[1,5-a]pyridine-3-carboxamide] | 7.70 |  |
| 2-cyclopropyl-4- {[(aR)-6-{4-[(1R)- 1-hydroxyethyl]- 2,5- dioxoimidazolidin- 1- yl}spiro[3.3]heptan- 2-yl]oxy}-1,3- thiazole-5- carboxamide [Example 109] | 6.48 |  |
| Cc1sc2cc(C(N)=O)c(O[C@H]3C[C@@]4(C[C@H](NC(=O)c5nnc(NCC(C)C)s5)C4)C3)nc2c1C (stereo partly drawn) [Example 162, 5-[(2-methylpropyl)amino]-N-[(4s)-6-({6-carbamoyl-2,3-dimethylthieno[3,2-b]pyridin-5-yl}oxy)spiro[3.3]heptan-2-yl]-1,3,4-thiadiazole-2-carboxamide] | 6.79 |  |
| Cc1ccn2nc(O[C@H]3CC4(C[C@H](NC(=O)c5nn(C(F)F)c6cc(OCC(C)(C)O)ccc56)C4)C3)c(C(N)=O)c2c1 (stereo partly drawn) [Example 132, 1-(difluoromethyl)-6-(2-hydroxy-2-methylpropoxy)-N-[(4s)-6-({3-carbamoyl-5-methylpyrazolo[1,5-a]pyridin-2-yl}oxy)spiro[3.3]heptan-2-yl]-1H-indazole-3-carboxamide] | 6.65 |  |
| NC(=O)c1c(O[C@H]2CC3(C[C@H](NC(=O)c4cnn5cc(OCC(F)F)ccc45)C3)C2)nn2ccccc12 (stereo partly drawn) [Example 122, 2-{[(4s)-6-[6-(2,2-difluoroethoxy)pyrazolo[1,5-a]pyridine-3-amido]spiro[3.3]heptan-2-yl]oxy}pyrazolo[1,5-a]pyridine-3-carboxamide] | 6.93 |  |
| CCn1cc(C(N)=O)c(O[C@H]2CC3(C[C@H](NC(=O)c4cnn5c(C6CC6)c(OCC(C)(C)O)ccc45)C3)C2)n1 (stereo partly drawn) [Example 19, 3-({(aR)-6-[7-cyclopropyl-6-(2-hydroxy-2-methylpropoxy)pyra-zolo[1,5-a]pyridine-3-amido]spiro[3.3]hep-tan-2-yl}oxy)-1-ethyl-1H-pyrazole-4-carboxamide] | 7.98 |  |
| NC(=O)c1sc(C2CC2)nc1O[C@H]1C[C@@]2(C[C@H](NC(=O)c3cnn4cc(OCC(F)(F)F)ccc34)C2)C1 (stereo partly drawn) [Example 62, 2-cyclopropyl-4-{[(aR)-6-[6-(2,2,2-trifluoroethoxy)pyra-zolo[1,5-a]pyridine-3-amido]spiro[3.3]hep-tan-2-yl]oxy}-1,3-thiazole-5-carboxamide] | 7.94 |  |
